Earlier results, collected in US6531115B1, “Analgesic and refreshing herbal composition and a process for preparing the same” (Council of Scientific & Industrial Research, priority 2001, dated 2003).

What was measured:
artificial toothache = settings: rabbits having artificial toothache
toothache = settings: in vivo

| SMILES | sedative effect on toothache (artificial toothache) | pain-relieving activity (toothache) |
| --- | --- | --- |
| Oc1ccccc1 [Phenol] | strongest action | – |
| Cc1ccc(C(C)C)c(O)c1 [Thymol] | – | very weak |
| CCO [alcohol] | – | almost no effect |
| CC12CCC(CC1=O)C2(C)C (stereo not drawn) [camphor] | no sedative effect | – |
| CC12CCC(CC1)C(C)(C)O2 [eucalyptol] | weak | – |
| CC1CCC(C(C)C)C(O)C1 (stereo not drawn) [menthol] | weak | – |
